Experimental data reported in PubChem BioAssay (NCI).
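Cells were grown in 96-well plates and exposed to each compound for 48 hours at five concentrations; endpoints were interpolated linearly between bracketing concentrations, or set to the highest concentration if not reached. The concentration for 50% growth inhibition is given as GI50. TGI denotes the concentration required for complete inhibition of growth.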

These compounds were tested on OVCAR-3 ovarian (assay: inhibition of tumour cell growth, NCI panel, 48 h).

Point of comparison: `O=c1[nH]c2cc(Cl)ccc2n1C1CCN(CCCC(c2ccc(F)cc2)c2ccc(F)cc2)CC1`, GI50 1.81 µM. Against it:
- O=C1/C(=C\c2cccn2Cc2ccccc2)c2ccccc2N1c1c(Cl)cccc1Cl — within 1.5-fold, 1.32 µM
- Cc1sc2nc(NCCc3c[nH]c4ccc(Cl)cc34)[nH]c(=O)c2c1C — 1.8-fold higher, 3.26 µM
- COc1ccc(/C=c2/sc3n(c2=O)C(c2ccc(OC)c(OC)c2)C2=C(N=3)c3cc(F)ccc3OC2)cc1 (configuration not stated) — within 1.5-fold, 2.54 µM
- O=C(O)c1cc(O)c2c(c1)C(C1c3cc(C(=O)O)cc(O)c3C(=O)c3c(OC4OC(CO)C(O)C(O)C4O)cccc31)c1cccc(OC3OC(CO)C(O)C(O)C3O)c1C2=O (configuration not stated) — higher, > 100 µM
- O=C(CN(C1CCCCC1)C1CCCCC1)Nc1ccc(S(=O)(=O)c2ccc(NC(=O)CN(C3CCCCC3)C3CCCCC3)cc2)cc1 — 6.5-fold lower, 0.279 µM
- Nc1nc(Br)nc2c1ncn2C1CC(O)C(CO)O1 (configuration not stated) — higher, > 100 µM
- Nc1nc(Nc2ccccc2)c2ncn(Cc3cc4c(cc3Br)OCO4)c2n1 — 56-fold lower, 0.0326 µM
- CCOC(=O)N1CCN(C(=O)c2ccc(C(F)(F)F)nc2Nc2cc(Cl)ccc2C)CC1 — 4.9-fold higher, 8.85 µM
- Cc1ccc(Nc2nc(N)c(C(=O)c3ccc(C#N)cc3)s2)cc1 — 5.7-fold lower, 0.319 µM
- O=C1c2ccn(CCCCNC(CO)(CO)CO)c2C(=O)c2c1c(O)c1ccccc1c2O — 9.9-fold lower, 0.183 µM
- COc1ccc(-c2cc(-c3cccn3C)c(C#N)c(N)n2)cc1OC — higher, > 100 µM
- COc1ccc(CNc2c3ccccc3nc3ccccc23)cc1OC — within 1.5-fold, 2.64 µM
- O=C(Nc1ccc(Cl)cc1F)c1cc(Br)ccc1O — 3-fold lower, 0.604 µM
- COc1ccc(-n2cc(-c3ccc(Cl)c(Cl)c3)nc2SCc2cccc(C#N)c2)cc1 — 9.4-fold higher, 17 µM
- Nc1c(C(=O)N/N=C/c2ccc(-c3ccc(Cl)cc3)o2)cnn1-c1ccnc2c(C(F)(F)F)cccc12 — higher, > 100 µM
- Fc1ccc(Nc2cc(-n3nnc4ccccc43)nc3ccccc23)cc1 — 16-fold higher, 28.4 µM
- NC(=O)C(=CNc1nc(-c2ccc(Cl)c(Cl)c2)cs1)C(N)=O — 23-fold higher, 41.6 µM
- O=C(Nc1cccc(Cl)c1)c1cc2ccccc2cc1O — within 1.5-fold, 1.43 µM

Point of comparison: `CCOC(=O)N1CCN(C(=O)c2ccc(C(F)(F)F)nc2Nc2cc(Cl)ccc2C)CC1`, TGI 47.2 µM. Against it:
- O=C1/C(=C\c2cccn2Cc2ccccc2)c2ccccc2N1c1c(Cl)cccc1Cl — higher, > 48.7 µM
- CCOC(=O)c1[nH]c(COC(C)=O)c(CCCOC(C)=O)c1CCCOC(C)=O — higher, > 100 µM
- Cc1sc2nc(NCCc3c[nH]c4ccc(Cl)cc34)[nH]c(=O)c2c1C — 3.7-fold lower, 12.7 µM
- COc1ccc(/C=c2/sc3n(c2=O)C(c2ccc(OC)c(OC)c2)C2=C(N=3)c3cc(F)ccc3OC2)cc1 (configuration not stated) — 3.3-fold lower, 14.1 µM
- O=C(Nc1ccc([N+](=O)[O-])cc1)C1C(=O)C(=O)N(c2ccc([N+](=O)[O-])cc2)C1=O (configuration not stated) — higher, > 100 µM
- O=C(O)c1cc(O)c2c(c1)C(C1c3cc(C(=O)O)cc(O)c3C(=O)c3c(OC4OC(CO)C(O)C(O)C4O)cccc31)c1cccc(OC3OC(CO)C(O)C(O)C3O)c1C2=O (configuration not stated) — higher, > 100 µM
- O=C(CN(C1CCCCC1)C1CCCCC1)Nc1ccc(S(=O)(=O)c2ccc(NC(=O)CN(C3CCCCC3)C3CCCCC3)cc2)cc1 — 46-fold lower, 1.02 µM
- O=C(/C=C/c1c(O)ccc2ccccc12)c1ccc2ccccc2c1 — higher, > 100 µM
- O=c1[nH]c2cc(Cl)ccc2n1C1CCN(CCCC(c2ccc(F)cc2)c2ccc(F)cc2)CC1 — 14-fold lower, 3.27 µM
- CCOC(=O)C1N(S(=O)(=O)c2ccc(C)cc2)CCC12C(c1ccc(OC)cc1)NC1CCCCC12 (configuration not stated) — higher, > 100 µM
- Nc1nc(Br)nc2c1ncn2C1CC(O)C(CO)O1 (configuration not stated) — higher, > 100 µM
- Nc1nc(Nc2ccccc2)c2ncn(Cc3cc4c(cc3Br)OCO4)c2n1 — 200-fold lower, 0.237 µM
- Cc1ccc(Nc2nc(N)c(C(=O)c3ccc(C#N)cc3)s2)cc1 — 8.7-fold lower, 5.43 µM
- O=C1c2ccn(CCCCNC(CO)(CO)CO)c2C(=O)c2c1c(O)c1ccccc1c2O — 120-fold lower, 0.388 µM
- COC(=O)/C=C/C1C(C(=O)OC)C2(C(=O)OC)CCC1(C(=O)OC)N2 (configuration not stated) — higher, > 100 µM
- CC(C)(C)N1CC2(CCCCC2)C1=O — higher, > 100 µM
- COc1ccc(-c2cc(-c3cccn3C)c(C#N)c(N)n2)cc1OC — higher, > 100 µM
- COc1ccc(CNc2c3ccccc3nc3ccccc23)cc1OC — 5.6-fold lower, 8.39 µM
- O=C(Nc1ccc(Cl)cc1F)c1cc(Br)ccc1O — 3.3-fold lower, 14.2 µM
- COc1ccc(-n2cc(-c3ccc(Cl)c(Cl)c3)nc2SCc2cccc(C#N)c2)cc1 — higher, > 100 µM
- N#CC(/C(=N/NC(=O)C(=O)NN)C(=O)NC12CC3CC(CC(C3)C1)C2)c1ccccc1 (configuration not stated) — higher, > 100 µM
- Nc1c(C(=O)N/N=C/c2ccc(-c3ccc(Cl)cc3)o2)cnn1-c1ccnc2c(C(F)(F)F)cccc12 — higher, > 100 µM
- Fc1ccc(Nc2cc(-n3nnc4ccccc43)nc3ccccc23)cc1 — higher, > 100 µM
- NC(=O)C(=CNc1nc(-c2ccc(Cl)c(Cl)c2)cs1)C(N)=O — higher, > 100 µM
- NC(N)=N/N=C/c1cc(Cl)cc(Cl)c1O — higher, > 100 µM
- O=C(Nc1cccc(Cl)c1)c1cc2ccccc2cc1O — higher, > 100 µM
- CCCCCCCCCc1cc(=O)c2c(O)cccc2o1 — higher, > 100 µM

These compounds were tested on ACHN renal (assay: inhibition of tumour cell growth, NCI panel, 48 h).

Point of comparison: `Cc1sc2nc(NCCc3c[nH]c4ccc(Cl)cc34)[nH]c(=O)c2c1C`, GI50 1.93 µM. Against it:
- O=C1/C(=C\c2cccn2Cc2ccccc2)c2ccccc2N1c1c(Cl)cccc1Cl — 4.1-fold higher, 7.9 µM
- COc1ccc(/C=c2/sc3n(c2=O)C(c2ccc(OC)c(OC)c2)C2=C(N=3)c3cc(F)ccc3OC2)cc1 (configuration not stated) — 10-fold higher, 19.3 µM
- O=C(O)c1cc(O)c2c(c1)C(C1c3cc(C(=O)O)cc(O)c3C(=O)c3c(OC4OC(CO)C(O)C(O)C4O)cccc31)c1cccc(OC3OC(CO)C(O)C(O)C3O)c1C2=O (configuration not stated) — higher, > 100 µM

Point of comparison: `Cc1sc2nc(NCCc3c[nH]c4ccc(Cl)cc34)[nH]c(=O)c2c1C`, TGI 4.47 µM. Against it:
- O=C1/C(=C\c2cccn2Cc2ccccc2)c2ccccc2N1c1c(Cl)cccc1Cl — higher, > 100 µM
- CCOC(=O)c1[nH]c(COC(C)=O)c(CCCOC(C)=O)c1CCCOC(C)=O — higher, > 100 µM
- COc1ccc(/C=c2/sc3n(c2=O)C(c2ccc(OC)c(OC)c2)C2=C(N=3)c3cc(F)ccc3OC2)cc1 (configuration not stated) — 15-fold higher, 65.7 µM
- O=C(Nc1ccc([N+](=O)[O-])cc1)C1C(=O)C(=O)N(c2ccc([N+](=O)[O-])cc2)C1=O (configuration not stated) — higher, > 100 µM
- O=C(O)c1cc(O)c2c(c1)C(C1c3cc(C(=O)O)cc(O)c3C(=O)c3c(OC4OC(CO)C(O)C(O)C4O)cccc31)c1cccc(OC3OC(CO)C(O)C(O)C3O)c1C2=O (configuration not stated) — higher, > 100 µM
